In patent publication US20250223331A1, “GLP-1/GIP DUAL-TARGETED POLYPEPTIDE AND FUSION PROTEIN AND APPLICATIONS THEREOF” (SUNSHINE LAKE PHARMA CO., LTD., priority 2021, published 2025):
Marks after values point to notes of the source that are not given here.

Experiments:
Assay type in all cases: in vivo
normal C57BL/6 mice [1] = assay: glucose tolerance in normal C57BL/6 mice (Example 7); details: 3 nmol/kg s.c. single dose, 72 h after dose
Procedure: (§1) Experimental methods: Normal C57BL/6 mice were randomly divided into 6 groups (Vehicle group, Dulaglutide group, HEC-G123 group, HEC-G128 group, HEC-G131 group, HEC-G132 group) according to blood glucose and body weight, with 8 mice in each group. For the groups of Dulaglutide, HEC-G123, HEC-G128, HEC-G131 and HEC-G132, the corresponding drug was injected subcutaneously into the mice at a dose of 3 nmol/kg, and for the control group, the corresponding vehicle was injected subcutaneously.
(§2) After 60 h of single administration, the mice were fasted for 12 h and drank water freely. Blood was collected from the tail vein to measure the basal blood glucose value of each group, then 2 g/kg of glucose solution was injected intraperitoneally, and blood glucose was measured at 15, 30, 60, and 0 min after glucose administration. According to the blood glucose values measured at different time points, the blood glucose concentration-time curve was plotted, and the AUC0˜90min of each dose group was calculated, and the experimental results are shown in Table 6 and FIGS. 1-2.

normal C57BL/6 mice [2] = assay: glucose tolerance in normal C57BL/6 mice (Example 8); details: 3 nmol/kg s.c. single dose, 72 h after dose
Procedure: as §1, with “HEC-G113” for “HEC-G123”, “HEC-G122” for “HEC-G128”, “HEC-G126” for “HEC-G131”, “HEC-G127” for “HEC-G132”, “Dulaglutide (Dulaglutide purchased from Eli Lilly, lot number was D256504), HEC-G113, HEC-G122, HEC-G126” for “Dulaglutide, HEC-G123, HEC-G128, HEC-G131”, “HEC-G127,” for “HEC-G132,”
as §2, with “60, 90” for “60,”, “Table 7” for “Table 6”, “FIGS. 3-4” for “FIGS. 1-2.”

normal C57BL/6 mice [3] = assay: glucose tolerance in normal C57BL/6 mice (Example 7); details: 3 nmol/kg s.c. single dose, 72 h after dose, 2 g/kg glucose i.p.
[4] = blood glucose concentration-time curve

Dulaglutide [reference compound] was tested, and the “Blood glucose value 0 min” value (normal C57BL/6 mice [1]; 2 g/kg glucose i.p., 0 min) was 4.4 ± 0.8 mM, the “Blood glucose value 15 min” value (normal C57BL/6 mice [1]; 2 g/kg glucose i.p., 15 min) was 15.7 ± 2.2 mM and the “Blood glucose value 30 min” value (normal C57BL/6 mice [1]; 2 g/kg glucose i.p., 30 min) was 12.7 ± 2.4 mM. The “Blood glucose value 60 min” value (normal C57BL/6 mice [1]; 2 g/kg glucose i.p., 60 min) was 8.1 ± 1.0 mM, the AUC0-90 min (normal C57BL/6 mice [1]; [4]) was 899.0 ± 105.4 ^a and the “Blood glucose value 0 min” value (normal C57BL/6 mice [2]; 2 g/kg glucose i.p., 0 min) was 4.3 ± 0.4 mM. For the same substance, the “Blood glucose value 15 min” value (normal C57BL/6 mice [2]; 2 g/kg glucose i.p., 15 min) was 15.3 ± 3.1 mM, the “Blood glucose value 30 min” value (normal C57BL/6 mice [2]; 2 g/kg glucose i.p., 30 min) was 15.1 ± 2.7 mM and the “Blood glucose value 60 min” value (normal C57BL/6 mice [2]; 2 g/kg glucose i.p., 60 min) was 9.1 ± 1.3 mM. The “Blood glucose value 90 min” value (normal C57BL/6 mice [2]; 2 g/kg glucose i.p., 90 min) was 6.8 ± 0.9 mM, the AUC0-90 min (normal C57BL/6 mice [2]; [4]) was 976.2 ± 135.6 ^a and the “Blood glucose value 90 min” value (normal C57BL/6 mice [3]) was 6.8 ± 0.6 mM.
